Source: patent US8685436B2, “Use of hydroxyflavanones for masking bitter taste” (Symrise AG, priority 2001, dated 2014)
Counter-ions that a name gives are not always drawn.

How the values were obtained:
[1] = Masking the bitter taste of a β-lactam antibiotic, difference testing and bitter intensity rating by 7 testers; format: in vivo
Source text: A solution of Faropenem Daloxate ([5R-[3(R*),5α,6α(R*)]]-6-(1-hydroxyethyl)-7-oxo-3-(tetrahydro-2-furanyl)-4-thia-1-azabicyclo[3.2.0]hept-2-ene-2-carboxylic acid (5-methyl-2-oxo-1,3-dioxol-4-yl)methyl ester, CAS No. 141702-36-5, 0.1% by weight in water, sample 1) and a mixture of Faropenem Daloxate+homoeriodictyol disodium salt (each 0.1% by weight in water, sample 2) were made up. A group of 7 testers were each given 3 samples for difference testing. 4 testers received sample 1 as a duplicate sample, 3 testers received sample 2 as a duplicate sample. The samples were tasted in differing orders. Of 7 testers, 7 correctly identified the individual sample. The average bitter intensity of sample 1 was rated 5, that of sample 2 was rated 2 (scale 1 to 5).

[2] = relatively high concentrations (450 ppm); cited from earlier work
[3] = Debittering black tea, bitterness rated by an expert group; format: in vivo; details: Tea sample 2 + 0.05% homoeriodictyol disodium salt; scale 1 just perceptibly bitter, 5 very bitter; tea sample 2 alone rated 5
Experimental: Two different types of black tea were brewed using boiling water (3 g of tea to 100 ml, allowed to infuse for 3 min, filter) and were then tasted by an expert group. The bitterness was rated using a scale of 1 to 5 (1 just perceptibly bitter, 5 very bitter).

Structure (SMILES): Cc1oc(=O)oc1COC(=O)C1=C([C@H]2CCCO2)S[C@@H]2[C@@H]([C@@H](C)O)C(=O)N12 (relative stereo) [Faropenem Daloxate, [5R-[3(R*),5α,6α(R*)]]-6-(1-hydroxyethyl)-7-oxo-3-(tetrahydro-2-furanyl)-4-thia-1-azabicyclo[3.2.0]hept-2-ene-2-carboxylic acid (5-methyl-2-oxo-1,3-dioxol-4-yl)methyl ester]
- average bitter intensity (scale 1 to 5) ([1]; sample 1: Faropenem Daloxate alone, 0.1% by weight in water): 5

Structure (SMILES): COc1ccc(OC(C)C(=O)[O-])cc1.[Na+] (stereo not shown) [Lactisol, 2(-4-Methoxyphenoxy)propionic acid sodium salt]
- bitter-reducing effect [2]: weak bitter-reducing effect

Structure (SMILES): COc1cc(C2CC(=O)c3c(O)cc(O)cc3O2)ccc1O (stereo not shown) [homoeriodictyol disodium salt, 2-(4-hydroxy-3-methoxyphenyl)-5,7-dihydroxychroman-4-one]
- Rating (1–5) of bitterness [3]: 2
- average bitter intensity (scale 1 to 5) ([1]; sample 2: Faropenem Daloxate + homoeriodictyol disodium salt, each 0.1% by weight in water): 2
